Source: patent US9045445B2, “Glycine transporter-1 inhibitors, methods of making them, and uses thereof” (Albany Molecular Research, Inc., priority 2010, dated 2015)
Where a name gives a salt, the structure may show the parent alone. Read-outs that look alike come from different tables or passages of the source.

Experiments:
[1] = target: T1, glycine transporter-1 (GlyT-1) (Homo sapiens, UniProt P48067); assay: [14C]glycine uptake assay in JAR cells endogenously expressing GlyT-1 (scintillation proximity); type: cell-based; conditions: JAR cells, [14C]glycine 5 μM, 3 hour incubation; read-out: GlyT-1 IC50
T1 construct: JAR cells (ATCC#HTB-144), which endogenously express GlyT-1; host or cells: JAR human choriocarcinoma cells
T1 sequence (P48067 1-706): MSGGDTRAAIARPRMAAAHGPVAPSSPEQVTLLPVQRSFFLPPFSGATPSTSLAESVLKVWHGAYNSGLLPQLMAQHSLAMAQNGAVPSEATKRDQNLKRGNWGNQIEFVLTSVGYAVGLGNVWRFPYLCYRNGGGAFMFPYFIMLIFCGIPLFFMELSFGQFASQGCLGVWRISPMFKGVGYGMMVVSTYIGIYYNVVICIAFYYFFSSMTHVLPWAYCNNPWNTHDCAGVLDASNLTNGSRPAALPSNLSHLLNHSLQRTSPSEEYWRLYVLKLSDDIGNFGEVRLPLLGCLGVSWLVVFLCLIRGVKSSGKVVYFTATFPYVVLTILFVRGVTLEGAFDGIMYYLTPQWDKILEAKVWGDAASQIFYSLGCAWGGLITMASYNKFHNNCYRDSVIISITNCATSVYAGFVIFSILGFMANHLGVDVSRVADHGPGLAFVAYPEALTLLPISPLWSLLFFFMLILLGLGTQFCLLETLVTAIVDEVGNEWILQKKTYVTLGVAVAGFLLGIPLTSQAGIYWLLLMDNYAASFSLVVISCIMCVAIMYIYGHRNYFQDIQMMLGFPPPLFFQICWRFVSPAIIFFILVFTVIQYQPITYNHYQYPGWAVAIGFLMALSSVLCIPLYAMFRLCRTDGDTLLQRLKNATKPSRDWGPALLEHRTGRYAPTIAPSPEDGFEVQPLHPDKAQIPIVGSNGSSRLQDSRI
How it was run: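 IC50 comes from a four-parameter fit of nine-point, duplicate curves measuring inhibition of 5 μM [14C]glycine uptake, read by scintillation proximity after 3 h at 37 °C. Cells are human JAR, which express GlyT-1 endogenously, given 10 min compound pre-treatment in pH 7.4 buffer with 5 mM alanine and 0.75% DMSO.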

[2] = target: T2, glycine transporter-2 (GlyT-2) (Homo sapiens, UniProt Q9Y345); assay: [14C]glycine uptake assay in HEK-GlyT-2 transfected cells; type: cell-based; conditions: HEK-GlyT-2 cells
T2 construct: expressed in transfected cells
T2 sequence (Q9Y345 1-797): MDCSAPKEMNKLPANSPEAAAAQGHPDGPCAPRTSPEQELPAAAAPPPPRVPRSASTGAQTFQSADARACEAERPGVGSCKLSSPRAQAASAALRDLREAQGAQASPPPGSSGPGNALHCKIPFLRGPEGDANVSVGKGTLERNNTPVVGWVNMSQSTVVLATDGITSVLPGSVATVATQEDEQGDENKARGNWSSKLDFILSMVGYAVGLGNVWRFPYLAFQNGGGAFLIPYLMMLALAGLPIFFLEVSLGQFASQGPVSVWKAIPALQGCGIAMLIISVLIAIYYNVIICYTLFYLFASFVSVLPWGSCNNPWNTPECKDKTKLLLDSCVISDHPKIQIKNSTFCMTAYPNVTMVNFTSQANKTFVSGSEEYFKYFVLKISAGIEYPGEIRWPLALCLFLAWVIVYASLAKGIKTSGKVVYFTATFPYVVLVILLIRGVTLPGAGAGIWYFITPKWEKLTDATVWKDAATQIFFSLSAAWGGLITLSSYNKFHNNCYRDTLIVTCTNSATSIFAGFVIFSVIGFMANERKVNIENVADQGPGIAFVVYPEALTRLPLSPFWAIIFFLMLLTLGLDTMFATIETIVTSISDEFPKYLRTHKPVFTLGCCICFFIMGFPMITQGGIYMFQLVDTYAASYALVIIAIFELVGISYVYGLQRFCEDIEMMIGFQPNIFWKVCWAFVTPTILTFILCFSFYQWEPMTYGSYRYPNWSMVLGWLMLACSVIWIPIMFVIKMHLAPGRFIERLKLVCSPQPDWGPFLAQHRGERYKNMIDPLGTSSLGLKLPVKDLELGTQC

[3] = tested on: cerebrospinal fluid (CSF) glycine levels; assay: CSF-glycine assay after oral administration; type: in vivo; conditions: Rattus norvegicus, po, rats, read-out: % CSF Glycine Increase versus Vehicle Control
Description: This study measured cerebrospinal fluid (CSF) glycine levels after oral administration of test compound. […] After the specified pretreatment time, the rats were euthanized by CO2 asphyxiation and a hypodermic needle was inserted into the cisterna magna to withdraw 50-100 μl of CSF. The CSF was diluted with deuterated-glycine as an internal standard glycine was quantified by LC/MS/MS.

IC50 [1] | melting point | IC50 [2] | Compound | change in vivo at 10 mg/kg ([3]; 0.5 h, pretreatment 30 mins) | change in vivo at 10 mg/kg ([3]; 2 h, pretreatment 120 mins) | change in vivo at 30 mg/kg ([3]; 2 h, pretreatment 120 mins) | also measured
284 nM | 180 to 185 °C |  | Cl.Cn1cnc(S(=O)(=O)N2CCN(C3(CNC(=O)c4ccc(C(F)(F)F)cc4Cl)CCC(F)(F)CC3)CC2)n1 [compound 281, 2-Chloro-N-((4,4-difluoro-1-(4-(1-methyl-1H-1,2,4-triazol-3-ylsulfonyl)piperazin-1-yl)cyclohexyl)methyl)-4-(trifluoromethyl)benzamide Hydrochloride] |  |  |  | 
8 nM | 147 °C |  | Cl.Cn1cc(S(=O)(=O)N2CCN(C3(CNC(=O)c4ccc(C(F)(F)F)cc4Cl)CCOCC3)CC2)nn1 [compound 277, 2-Chloro-N-((4-(4-(1-methyl-1H-1,2,3-triazol-4-ylsulfonyl)piperazin-1-yl)tetrahydro-2H-pyran-4-yl)methyl)-4-(trifluoromethyl)benzamide Hydrochloride] |  |  |  | 
1 nM |  | > 75000 nM | Cn1cc(S(=O)(=O)N2CCN(C3(CNC(=O)c4ccc(F)cc4Cl)CCC(F)(F)CC3)CC2)nn1 [compound 192, 2-Chloro-N-((4,4-difluoro-1-(4-(1-methyl-1H-1,2,3-triazol-4-ylsulfonyl)piperazin-1-yl)cyclohexyl)methyl)-4-fluorobenzamide Hydrochloride] | 195% | 311% |  | change in vivo at 3 mg/kg ([3]; 0.5 h, pretreatment 30 mins): 173%; change in vivo at 3 mg/kg ([3]; 2 h, pretreatment 120 mins): 199%
 | 145 °C |  | Cn1cc(S(=O)(=O)N2CCN(C3(CNC(=O)c4ccc(C(F)(F)F)cc4C(F)(F)F)CCOCC3)CC2)nn1 (as salt: hydrochloride) [compound 276, N-((4-(4-(1-Methyl-1H-1,2,3-triazol-4-ylsulfonyl)piperazin-1-yl)tetrahydro-2H-pyran-4-yl)methyl)-2,4-bis(trifluoromethyl) benzamide Hydrochloride] |  |  |  | 
1 nM |  | > 75000 nM | CC(NC(=O)c1ccc(C(F)(F)F)cc1C(F)(F)F)C1(N2CCN(S(=O)(=O)c3cn(C)nn3)CC2)CCC(F)(F)CC1 (stereo not drawn) [compound 226, N-(1-(4,4-Difluoro-1-(4-(1-methyl-1H-1,2,3-triazol-4-ylsulfonyl)piperazin-1-yl)cyclohexyl)ethyl)-2,4-bis(trifluoromethyl) benzamide Hydrochloride] |  | 344% |  | change in vivo at 3 mg/kg ([3]; 2 h, pretreatment 120 mins): 243%; change in vivo at 3 mg/kg ([3]; 6 h, pretreatment 360 mins): 227%; change in vivo at 10 mg/kg ([3]; 6 h, pretreatment 360 mins): 339%
33 nM |  | > 75000 nM | CC(O)CS(=O)(=O)N1CCN(C2(CNC(=O)c3ccc(C(F)(F)F)cc3Cl)CCC(F)(F)CC2)CC1 (stereo not drawn) [compound 252, 2-Chloro-N-((4,4-difluoro-1-(4-(2-hydroxypropylsulfonyl)piperazin-1-yl)cyclohexyl)methyl)-4-(trifluoromethyl)benzamide Hydrochloride] |  |  | 207% | 

Second part, the compound before the results:

Compound | IC50 [1] | melting point | IC50 [2] | change in vivo at 10 mg/kg ([3]; 0.5 h, pretreatment 30 mins) | change in vivo at 10 mg/kg ([3]; 2 h, pretreatment 120 mins) | change in vivo at 30 mg/kg ([3]; 2 h, pretreatment 120 mins) | also measured
CC(=O)CS(=O)(=O)N1CCN(C2(CNC(=O)c3ccc(C(F)(F)F)cc3Cl)CCC(F)(F)CC2)CC1 (as salt: hydrochloride) [compound 280, 2-Chloro-N-((4,4-difluoro-1-(4-(2-oxopropylsulfonyl)piper-azin-1-yl)cyclohexyl)methyl)-4-(trifluoromethyl) benzamide Hydrochloride] |  | 65 to 67 °C |  |  |  |  | 
CC(O)CS(=O)(=O)N1CCN(C2(CNC(=O)c3ccc(C(F)(F)F)cc3Cl)CCC(F)(F)CC2)CC1.Cl (single isomer, unassigned; enantiomer a) [compound 278, (Enantiomer A)-2-Chloro-N-((4,4-difluoro-1-(4-(2-hydroxypropylsulfonyl)piperazin-1-yl)cyclohexyl)methyl)-4-(trifluoromethyl) benzamide Hydrochloride] | 24 nM | 80 to 82 °C |  |  |  |  | 
Cn1cnc(S(=O)(=O)N2CCN(C3(CNC(=O)c4ccc(F)cc4F)CCC(F)(F)CC3)CC2)c1 [compound 162, N-((4,4-difluoro-1-(4-(1-methyl-1H-imidazol-4-ylsulfonyl)piperazin-1-yl)cyclohexyl)methyl)-2,4-difluorobenzamide Hydrochloride] | 46 nM |  | > 135000 nM | 154% | 130% | 156% | change in vivo at 30 mg/kg ([3]; 0.5 h, pretreatment 30 mins): 178%; change in vivo at 100 mg/kg ([3]; 0.5 h, pretreatment 30 mins): 207%; change in vivo at 100 mg/kg ([3]; 2 h, pretreatment 120 mins): 156%
CCCS(=O)(=O)N1CCN(C2(CNC(=O)c3ccc(C(F)(F)F)cc3Cl)CCC(F)(F)CC2)CC1 [compound 151, N-((4,4-Difluoro-1-(4-(propylsulfonyl)piperazin-1-yl)cyclohexyl)methyl)-2-chloro-4-(trifluoromethyl)benzamide Hydrochloride] | 17 nM |  | > 75000 nM | 209% | 169% | 249% | change in vivo at 30 mg/kg ([3]; 0.5 h, pretreatment 30 mins): 221%; change in vivo at 100 mg/kg ([3]; 0.5 h, pretreatment 30 mins): 204%; change in vivo at 100 mg/kg ([3]; 2 h, pretreatment 120 mins): 238%
